# “And” between values parts separate entries of the source, which are not always exact repeats. Equal values may be shown once.
# Columns and labels:
# [1] = system: MO59J (DNAPKcs(−/−)) vs MO59K (DNAPKCs(+/+)); assay: MTT assay, sensitization (DNAPKcs(−/−)); assay type: cell-based
# Procedure: Cells were then incubated with 5% MTT for 1-2 hours and lysed. MTT was colorimetrically read at 570 nm and EC50's were determined using linear regression analysis.
# Sensitization was carried out with various chemical treatments.
# refractory solid tumors = assay: Clinical activity in patients with advanced solid tumors; assay type: in vivo, human; design: key to Best Response: partial response (PR); stable disease SD; Partial/Minor Responses (PR/MR); conditions: for Iliac node: Baseline 5.5; for RMLL Lung / Rectosigmoid: Baseline 2.5; for RML Lung: Baseline 3.9; for RUL Lung: Baseline 4.7; for Liver met: Baseline 7.4
# Procedure: The administered dose of SNS-595 can be delivered as a single dose such as, for example, an IV push of 10-15 minutes duration (e.g. a single bolus injection) or over time such as, for example, a 24-hour period (e.g., continuous infusion over time or divided bolus doses over time) and is repeated as necessary, for example, until the patient experiences stable disease or regression, or until the patient experiences disease progression or unacceptable toxicity. For example, stable disease for solid tumors generally means that the perpendicular diameter of measurable lesions has not increased by 25% or more from the last measurement. See e.g., Response Evaluation Criteria in Solid Tumors (RECIST) Guidelines, Journal of the National Cancer Institute 92(3): 205-216 (2000). Stable disease or lack thereof is determined by methods known in the art such as evaluation of patient symptoms, physical examination, visualization of the tumor that has been imaged using X-ray, CAT, PET, or MRI scan and other commonly accepted evaluation modalities.
# SNS-595 was administered to patients with advanced solid cancers as an IV infusion over 10 minutes on 2 schedules. In the first schedule (A), a weekly dose of SNS-595 was administered for three weeks followed by at least 7 days off (qwk×3). In the second schedule (B), a dose of SNS-595 was administered once every three weeks (q3wk).
# In both schedules, the starting dose of SNS-595 was 3 mg/m^2, and doses were escalated by sequential cohorts of 3. The doses were doubled until the first related adverse event at or above Grade 2 or until the first abnormal lab value. The doses were then escalated by a modified Fibonacci schema.
# In study A, 21 patients (9 male, 12 female) were treated in 6 cohorts (dose range 3-24 mg/m^2/wk). In study B, 41 (25 male, 16 female) patients were treated in 9 cohorts (dose range 3-75 mg/m^2/wk). The median ages were 61 yrs (Study A) and 59 yrs (Study B), sex 12F/9M (Study A), 16F/25M (Study B), all patients had baseline European Cooperative Oncology Group Performance Status (ECOG PS) 0-2. Patient eligibility included refractory solid tumors and adequate organ function.
# [2] = design: species or system female CD-1 mice; conditions: mouse, in vivo
# Procedure: Female CD-1 mice were administered 5, 10, 15, or 20 mg/kg SNS-595 intravenously on Day 0 and Day 4. Blood was drawn on days 6, 8, and 12 post initial injection for hematological analysis. Femurs were extracted on day 6 fixed in Streck and H&E stained prior to bone marrow cellularity analysis. […] At 20 mg/kg, cellularity was reduced to 7.5%, while circulating neutrophils were reduced from a pre-dose level of […] to a nadir of 51±24 cells/mL blood on day 8.
# [3] = both studies, advanced solid cancers
# [4] = initial dosage 3 mg/m^2, q3wk, Lung
# [5] = initial dosage 6 mg/m^2, q3wk, Renal Cell
# [6] = initial dosage 6 mg/m^2, qwk x3, Renal Cell
# [7] = initial dosage 12 mg/m^2, q3wk, Lung
# [8] = initial dosage 12 mg/m^2, qwk x3, Leiomyosarcoma
# [9] = initial dosage 12 mg/m^2, qwk x3, Melanoma
# [10] = initial dosage 15 mg/m^2, qwk x3, Mesothelioma (two patients)
# [11] = initial dosage 15 mg/m^2, qwk x3, Nasopharyngeal
# [12] = initial dosage 24 mg/m^2, q3wk, Adenocarcinoma (unknown origin)
# [13] = initial dosage 24 mg/m^2, qwk x3, Salivary Gland
# [14] = initial dosage 36 mg/m^2, q3wk, Colon
# [15] = initial dosage 36 mg/m^2, q3wk, Ovarian
# [16] = initial dosage 48 mg/m^2, q3wk, Lung
# [17] = initial dosage 48 mg/m^2, q3wk, Ovarian (two patients)
# [18] = initial dosage 60 mg/m^2, q3wk, Neuroendocrine
# [19] = initial dosage 60 mg/m^2, q3wk, Ovarian
# [20] = initial dosage 75 mg/m^2, q3wk, Müllerian
smiles,measurement,setting,value
"CN[C@H]1CN(c2ccc3c(=O)c(C(=O)O)cn(-c4nccs4)c3n2)C[C@@H]1OC [SNS-595, (+)-1,4-dihydro-7-[(3S,4S)-3-methoxy-4-(methylamino)-1-pyrrolidinyl]-4-oxo-1-(2-thiazolyl)-1,8-naphthyridine-3-carboxylic acid]","sensitization, PIKK dependence",[1]; ATM/ATR or DNAPK activity inhibited or diminished,only when DNAPKcs activity is diminished
same,"Sensitization, fold decrease in the EC50 for cytotoxicity (MTT): DNAPKcs(−/−)","[1]; MO59J (DNAPKcs(−/−)) vs MO59K (DNAPKCs(+/+)), compound 72 hours",10 fold
same,P-aortic node,"refractory solid tumors; PR patient, Ovarian, C2, Baseline 1.7",1.6 cm
same,Aortic node,"refractory solid tumors; PR patient, Ovarian, C2, Baseline 2.4",2.0 cm
same,Iliac node,"refractory solid tumors; PR patient, Ovarian, C2",5.0 cm
same,CA125,"refractory solid tumors; PR patient, Ovarian, C2, Baseline 467",272 U/mL
same,P-aortic node,"refractory solid tumors; PR patient, Ovarian, C4, Baseline 1.7",1.5 cm
same,Aortic node,"refractory solid tumors; PR patient, Ovarian, C4, Baseline 2.4",2.2 cm
same,Iliac node,"refractory solid tumors; PR patient, Ovarian, C4",4.7 cm
same,CA125,"refractory solid tumors; PR patient, Ovarian, C4, Baseline 467",176 U/mL
same,P-aortic node,"refractory solid tumors; PR patient, Ovarian, C6, Baseline 1.7",1.3 cm
same,Aortic node,"refractory solid tumors; PR patient, Ovarian, C6, Baseline 2.4",2.0 cm
same,Iliac node,"refractory solid tumors; PR patient, Ovarian, C6",3.9 cm
same,CA125,"refractory solid tumors; PR patient, Ovarian, C6, Baseline 467",120 U/mL
same,RMLL Lung,"refractory solid tumors; SD (MR) patient, Müllerian, C2",2.5 cm
same,RML Lung,"refractory solid tumors; SD (MR) patient, Müllerian, C2",3.9 cm
same,RUL Lung,"refractory solid tumors; SD (MR) patient, Müllerian, C2",4.5 cm
same,RMLL Lung,"refractory solid tumors; SD (MR) patient, Müllerian, C4",2.5 cm
same,RML Lung,"refractory solid tumors; SD (MR) patient, Müllerian, C4",3.7 cm
same,RUL Lung,"refractory solid tumors; SD (MR) patient, Müllerian, C4",4.5 cm
same,RMLL Lung,"refractory solid tumors; SD (MR) patient, Müllerian, C6",2.6 cm
same,RML Lung,"refractory solid tumors; SD (MR) patient, Müllerian, C6",2.4 cm
same,RUL Lung,"refractory solid tumors; SD (MR) patient, Müllerian, C6",5.0 cm
same,Left upper lobe nodule,"refractory solid tumors; SD (MR) patient, Nasopharyngeal, C2, Baseline 1.1",1.0 cm
same,Rt upper lobe nodule 2,"refractory solid tumors; SD (MR) patient, Nasopharyngeal, C2, Baseline 1.5",1.3 cm
same,Lingular nodule,"refractory solid tumors; SD (MR) patient, Nasopharyngeal, C2, Baseline 1.6",1.5
same,Rt upper lobe nodule 1,"refractory solid tumors; SD (MR) patient, Nasopharyngeal, C2, Baseline 2.3",1.5 cm
same,Aortic node,"refractory solid tumors; SD (MR) patient, Ovarian (first), C2, Baseline 1.7",1.5 cm
same,P-aortic node,"refractory solid tumors; SD (MR) patient, Ovarian (first), C2, Baseline 1.8",1.1 cm
same,Liver met,"refractory solid tumors; SD (MR) patient, Ovarian (first), C2",6.9 cm
same,CA125,"refractory solid tumors; SD (MR) patient, Ovarian (first), C2, Baseline 567",811 U/mL
same,Aortic node,"refractory solid tumors; SD (MR) patient, Ovarian (first), C4, Baseline 1.7",1.2 cm
same,P-aortic node,"refractory solid tumors; SD (MR) patient, Ovarian (first), C4, Baseline 1.8",1.1 cm
same,Liver met,"refractory solid tumors; SD (MR) patient, Ovarian (first), C4",5.7 cm
same,CA125,"refractory solid tumors; SD (MR) patient, Ovarian (first), C4, Baseline 567",419 U/mL
same,Aortic node,"refractory solid tumors; SD (MR) patient, Ovarian (first), C6, Baseline 1.7",1.8 cm
same,P-aortic node,"refractory solid tumors; SD (MR) patient, Ovarian (first), C6, Baseline 1.8",1.2 cm
same,Liver met,"refractory solid tumors; SD (MR) patient, Ovarian (first), C6",5.7 cm
same,CA125,"refractory solid tumors; SD (MR) patient, Ovarian (first), C6, Baseline 567",274 U/mL
same,3 mets,"refractory solid tumors; SD (MR) patient, Ovarian (second)",3 mets unchanged
same,Rectosigmoid,"refractory solid tumors; SD (MR) patient, Ovarian (second), C2",0.0 cm
same,CA125,"refractory solid tumors; SD (MR) patient, Ovarian (second), C2, Baseline 50",18 U/mL
same,Rectosigmoid,"refractory solid tumors; SD (MR) patient, Ovarian (second), C4",0.0 cm
same,CA125,"refractory solid tumors; SD (MR) patient, Ovarian (second), C4, Baseline 50",16 U/mL
same,Rectosigmoid,"refractory solid tumors; SD (MR) patient, Ovarian (second), C6",0.0 cm
same,CA125,"refractory solid tumors; SD (MR) patient, Ovarian (second), C6, Baseline 50",15 U/mL
same,Best Response,"refractory solid tumors; Table 11, Müllerian",SD (MR)
same,Best Response,"refractory solid tumors; Table 11, Nasopharyngeal",SD (MR)
same,Best Response,"refractory solid tumors; Table 11, Ovarian (three patients)",SD (MR) and PR
same,patients that achieved partial responses,refractory solid tumors; [3],two patients
same,patients that achieved stable disease for over sixteen weeks,refractory solid tumors; [3],seventeen patients
same,Best Response,refractory solid tumors; [4],SD
same,Weeks on Therapy,refractory solid tumors; [4],18 Weeks
same,Best Response,refractory solid tumors; [5],SD
same,Weeks on Therapy,refractory solid tumors; [5],18 Weeks
same,Best Response,refractory solid tumors; [6],SD
same,Weeks on Therapy,refractory solid tumors; [6],16 Weeks
same,Best Response,refractory solid tumors; [7],SD
same,Weeks on Therapy,refractory solid tumors; [7],53 Weeks
same,Best Response,refractory solid tumors; [8],SD
same,Weeks on Therapy,refractory solid tumors; [8],16 Weeks
same,Best Response,refractory solid tumors; [9],SD
same,Weeks on Therapy,refractory solid tumors; [9],16 Weeks
same,Best Response,refractory solid tumors; [10],PR and SD
same,Weeks on Therapy,refractory solid tumors; [10],28 Weeks and 18 Weeks
same,Best Response,refractory solid tumors; [11],SD
same,Weeks on Therapy,refractory solid tumors; [11],16 Weeks
same,Best Response,refractory solid tumors; [12],SD
same,Weeks on Therapy,refractory solid tumors; [12],18 Weeks
same,Best Response,refractory solid tumors; [13],SD
same,Weeks on Therapy,refractory solid tumors; [13],24 Weeks
same,Best Response,refractory solid tumors; [14],SD
same,Weeks on Therapy,refractory solid tumors; [14],33 Weeks
same,Best Response,refractory solid tumors; [15],SD
same,Weeks on Therapy,refractory solid tumors; [15],18 Weeks
same,Best Response,refractory solid tumors; [16],SD
same,Weeks on Therapy,refractory solid tumors; [16],46 Weeks
same,Best Response,refractory solid tumors; [17],PR and SD
same,Weeks on Therapy,refractory solid tumors; [17],24 Weeks and 30 Weeks
same,Best Response,refractory solid tumors; [18],SD
same,Weeks on Therapy,refractory solid tumors; [18],58 Weeks
same,Best Response,refractory solid tumors; [19],SD
same,Weeks on Therapy,refractory solid tumors; [19],33 Weeks
same,Best Response,refractory solid tumors; [20],SD
same,Weeks on Therapy,refractory solid tumors; [20],46 Weeks
same,"stable disease SD, range",refractory solid tumors; study A (qwk×3),16-24 wks
same,patients that achieved partial response (PR),"refractory solid tumors; study A (qwk×3), 21 patients",one patient
same,patients that achieved stable disease SD,"refractory solid tumors; study A (qwk×3), 21 patients",six
same,patients with PR as best response,"refractory solid tumors; study B (q3wk), 41 patients",one PR
same,patients with SD as best response,"refractory solid tumors; study B (q3wk), 41 patients",11
same,peripheral neutrophils,[2],significant decrease
same,platelet response,[2],minor platelet response
same,Total WBCs,[2]; iv,"reached a nadir on day 8, but returned to normal levels"

# Source: patent US8580814B2, “Methods of using (+)-1,4-dihydro-7-[(3S,4S)-3-methoxy-4-(methylamino)-1-pyrrolidinyl]-4- oxo-1-(2-thiazolyl)-1,8-naphthyridine-3-carboxylic acid for treatment of cancer” (priority 2006, dated 2013)
